Columns and labels:
[1] = test system: acetic acid-induced writhing; experiment: Acetic acid-induced writhing test on mice; assay type: in vivo, mouse; details: for Numbers of writhings: mean ± SD
Protocol: In order to measure an antinociceptive activity, 1% acetic acid (100 μl) was intraperitoneally injected to a mouse. 10 minutes after the injection of the acetic acid, the number of writhings was counted for 10 minutes. Before the injection of the acetic acid, a test material dissolved in a mixture including DMSO and water at a ratio of 1:1 was orally administered (0.1 ml/mouse).
Each group consisted of 6 mice. Measurement values were represented by arithmetic mean±SD (a of Table 3). b of Table 3 indicates an inhibitory activity % compared to the control group treated with the acetic acid. * indicates a significant difference of P<0.05 compared to the acetic acid-treated control group.

[2] = test system: AA-induced mouse ear edema; experiment: Arachidonic acid (AA)-induced mouse ear edema; assay type: in vivo; details: 20 mg/kg oral
Protocol: AA-induced mouse ear edema assay was used to identify an anti-inflammatory activity in vivo in anti-inflammatory animal model. According to a method disclosed in Kim et al. (1993), 2% AA acetone solution was applied to an ear of a mouse (20 μl/ear), and after one hour, a thickness of the ear was measured using a dial thickness gauge (Mitutoyo, Japan). One hour before the AA treatment, a test material dissolved in a mixture including DMSO and water at a mixture ratio of 1:1 was orally administered to the mouse (0.1 ml/mouse).

[3] = test system: CGN-induced mouse paw edema; experiment: λ-Carrageenan (CGN)-induced mouse paw edema; assay type: in vivo; details: for Paw volume increased: 5 h after CGN, mean ± SD
Protocol: Mouse CGN-induced paw edema assay was performed to measure an anti-inflammatory activity according to a slightly modified method disclosed in Winter et al. (1962). […] If the volume was greater than that before the addition of CGN, it was deemed that edema developed. The test material was dissolved in a mixture including DMSO and water at a mixture ratio of 1:1 and then was orally administered. A volume of a negative control group which was not treated with CGN was 0.149±0.025 ml.

[4] = biological target: T1, 5-LOX (Rattus norvegicus, UniProt P12527); experiment: 5-LOX-mediated cysteinyl leukotriene (LTC4/D4/E4) production in A23187-treated RBL-1 cells; assay type: cell-based; details: 1 nM, read-out: 5-LOX inhibitory activity
T1 construct: RBL-1 cells obtained from American Type Culture Collection; endogenous in cells; host or cells: RBL-1 (rat basophilic leukemia) cells, ATCC
T1 sequence (P12527 1-673): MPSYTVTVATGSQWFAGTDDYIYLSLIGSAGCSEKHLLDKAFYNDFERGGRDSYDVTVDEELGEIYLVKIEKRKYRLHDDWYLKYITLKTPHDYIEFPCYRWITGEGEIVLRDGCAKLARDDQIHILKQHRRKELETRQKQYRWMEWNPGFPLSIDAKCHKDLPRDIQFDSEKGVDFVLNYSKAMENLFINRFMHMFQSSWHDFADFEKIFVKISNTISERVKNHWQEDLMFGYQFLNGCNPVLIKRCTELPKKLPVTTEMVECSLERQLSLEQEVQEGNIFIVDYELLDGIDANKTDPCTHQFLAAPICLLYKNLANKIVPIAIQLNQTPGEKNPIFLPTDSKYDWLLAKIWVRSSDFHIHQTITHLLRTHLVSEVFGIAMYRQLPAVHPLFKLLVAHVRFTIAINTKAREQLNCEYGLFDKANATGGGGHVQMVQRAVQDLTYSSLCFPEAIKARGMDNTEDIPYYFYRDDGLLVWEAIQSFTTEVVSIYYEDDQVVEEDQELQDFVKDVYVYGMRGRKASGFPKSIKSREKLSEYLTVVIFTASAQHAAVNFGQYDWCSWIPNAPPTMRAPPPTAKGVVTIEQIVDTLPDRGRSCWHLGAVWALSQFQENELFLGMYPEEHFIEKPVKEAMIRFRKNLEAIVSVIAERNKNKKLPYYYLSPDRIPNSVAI
Protocol: The cells were placed on 96-well plates for 2 hours, and incubated in advance with a test material for 10 minutes. The test material was dissolved in DMSO and diluted with serum-free DMEM at an appropriate concentration. The final concentration of DMSO was adjusted to be 0.1% (v/v). […] A medium used was collected and a concentration of cysteinyl leukotrienes (LTC4/D4/E4) produced by 5-LOX was measured using an ELISA kit (Cayman Chem.) according to a method recommended by the manufacturer.
It is known that when RBL-1 cells are activated by A23187 (calcium ionophore), a great amount of cysteinyl-LTs is generated by 5-LOX.

CC(=O)Oc1ccccc1C(=O)O [Aspirin, aspirin]
inhibitory activity % compared to the acetic acid-treated control group (writhings) ([1]; Exp. 1, 100 mg/kg oral): 60.9% | Numbers of writhings ([1]; Exp. 1, 100 mg/kg oral): 5.7 ± 3.8 | inhibitory activity % compared to the acetic acid-treated control group (writhings) ([1]; Exp. 2, 100 mg/kg oral): 46.1% | Numbers of writhings ([1]; Exp. 2, 100 mg/kg oral): 9.6 ± 3.2

COc1ccc2c(c1)c(CC(=O)O)c(C)n2C(=O)c1ccc(Cl)cc1 [Indomethacin, indomethacin]
inhibitory activity % compared to the AA-treated control group (ear edema) [2]: 70% | Ear thickness increased ([2]; 1 h after AA, mean ± SD): 0.021 ± 0.013 mm | inhibitory activity % compared to the CGN-treated control group (paw edema) ([3]; 20 mg/kg oral): 23.7% | Paw volume increased ([3]; 20 mg/kg oral): 0.116 ± 0.039 mL | inhibitory activity % compared to the CGN-treated control group (paw edema) ([3]; 100 mg/kg oral): 44.7% | Paw volume increased ([3]; 100 mg/kg oral): 0.084 ± 0.019 mL

CC(Cc1ccc(O)c(O)c1)C(C)Cc1ccc(O)c(O)c1 (stereo not shown) [NDGA, nordihydroguaiaretic acid]
inhibition at 0.001 µM [4]: 99%

C[C@]12C=CC(=O)C=C1CC[C@@H]1[C@@H]2[C@@H](O)C[C@@]2(C)[C@H]1CC[C@]2(O)C(=O)CO [Prednisolone, prednisolone]
inhibitory activity % compared to the CGN-treated control group (paw edema) ([3]; 20 mg/kg oral): 50.0% | Paw volume increased ([3]; 20 mg/kg oral): 0.076 ± 0.011 mL
